Results on five compounds are retold here after patent publication US8741871B2, “Trehalose compound, method for producing same, and pharmaceutical product containing the compound” (priority 2008, dated 2014).

The subject of series [1] is Salmonella typhmurium TA98. As to the kind of experiment: Mutagenicity test (Ames test). The note with it: TA98, in the presence or absence of S9 mix; FIG. 11. A general note: In the Ames test, an excess of revertant colonies over the control signals mutagenicity.
The test system of series [2] is Welch bacillus (Type A; NTCT8237). In kind it is in vivo. The note with it: 100 μg/mouse i.p. three hours before Welch bacillus 2.4×10^7 cells/mouse i.p. The procedure:
As test compounds, 1 mg each of the compound synthesized by the method described in Production Example α-1 and TDCM were weighed. Emulsion solutions of the test compounds (1 mg/ml) were prepared in the same manner as described above.
[…] of Brain Heart Infusion (BHI) (Difco) powders were dissolved in 200 ml of distilled water. 40 ml of the obtained solution (hereinafter this solution is referred to as a “BHI medium”) was withdrawn with a measuring pipette, and it was then added to a 200-ml flask, followed by performing a high-pressure steam sterilization (121° C., 20 minutes). In addition, 5 ml of the BHI medium was added to two screw-top test tubes, and they were then subjected to a high-pressure steam sterilization. Moreover, a glass tube-equipped rubber plug (with a cotton plug) and a glass tube were also subjected to a high-pressure steam sterilization. In a clean bench, an appropriate amount of bacteria for preservation, which had grown on a cooked meat medium, was collected with a sterilized Pasteur pipette, and it was then inoculated on the BHI medium in the aforementioned sterilized screw-top test tube. Subsequently, it was incubated at 37° C. overnight.
In a clean bench, bacteria that had grown in the screw-top test tube (wherein the inside of the […] in which bacteria had grown became clouded, and gas was generated) was transferred into a 200-ml Erlenmeyer flask, which contained 40 ml of BHI medium. A glass tube was inserted into the medium, so as to carry out nitrogen substitution for 10 minutes. Subsequently, the glass tube-equipped rubber plug (with a cotton plug) was equipped in the Erlenmeyer flask (since Welch bacillus generates gas, it is necessary to make an air vent), and incubation was then carried out at 37° C. for 4 to 5 hours. Thereafter, the cultured Welch bacillus was transferred into a centrifuge tube, it was then centrifuged (9000 rpm, 15 minutes), and the supernatant was then removed. 20 ml of sterilized normal saline solution was added to the precipitate, so that the bacteria were suspended therein. The suspension was centrifuged (9000 rpm, 15 minutes), and the supernatant was then removed.
Mice (ICR, 6-week-old) were divided into three groups, and the following test was then carried out.
An emulsion solution containing the test compound, an emulsion solution containing TDCM, or an emulsion solution alone, which was to be used as a control, was intraperitoneally administered in an amount of 100 μg/mouse to a group of four mice (100 μl/mouse, in the case of the emulsion solution alone). Three hours later, Welch bacillus (2.4×10^7 cells/mouse) was intraperitoneally administered to the mice. Thereafter, the condition of the mice was observed.

The subject of series [3] is Welch bacillus toxin (recombinant α-toxin). The settings on record: in vivo, ip.
For series [4], the system named is IL-6, TNF-α, IFN-γ in mouse plasma. As to the kind of experiment: Measurement of IL-6, TNF-α and IFN-γ released into peripheral blood of test compound administered mouse. The settings on record: 100 μg/mouse intravenous, two hours later; for IL-6-releasing activity (mouse plasma IL-6 concentration) compared with TDCM: FIG. 6; for IFN-γ-releasing activity (mouse plasma IFN-γ concentration) compared with TDCM: FIG. 7.

Series [5] deals with THP-1 cells. Briefly: Analysis of cytotoxicity to THP-1 cells using trypan blue. In kind it is cell-based, human. The note with it: treated for 2 hours and for 24 hours; FIG. 10. The method, then: The cultured THP-1 cells were transferred into a 50-ml centrifuge tube in a clean bench. The cells were then centrifuged at 1,000 rpm for 5 minutes at 20° C., and the supernatant was then removed. […] 10 μl of this cell suspension was added to a sterile Eppendorf tube, to which 990 μl of serum-free RPMI 1640 medium had previously been added, so that the solution was 100-fold diluted. The number of cells in 10 μl of the 100-fold diluted solution was counted with a blood cell counter, and the cell suspension was diluted with serum-free RPMI 1640 medium to a cell density of 1×10^7 cells/ml.
A test compound (Example 9)/DMSO solution, or DMSO was added to 100 μl of RPMI medium to a concentration of 200 μM. Thereafter, ultrasonic wave was applied to the mixture for 5 seconds. It is to be noted that a test compound, 6-O-(2-decyldecanoyl)-α-glucose (hereinafter referred to as a “control compound B”), and TDCM were used to prepare positive controls in the same manner as described above. In addition, a negative control was prepared by adding no test compounds (vehicle). […] Subsequently, 20 μl of 0.3% trypan blue/PBS (−) was added to the reaction solution so as to suspend the reaction solution therein, and thereafter, the survival rate of the cells was immediately analyzed using a cell number measuring apparatus (CYRORECON).

With `Nc1ccc2cc3ccccc3cc2c1` [2-aminoanthracene, reference compound], the “mutagenicity (Ames test, number of His colonies)” value in series [1] is “positive”.

Consider `CCCCCCCCCCCCCCC[C@@H](O)[C@@H](CCCCCCCCCCCCCC)C(=O)OC[C@H]1O[C@H](O[C@H]2O[C@H](COC(=O)[C@H](CCCCCCCCCCCCCC)[C@H](O)CCCCCCCCCCCCCCC)[C@@H](O)[C@H](O)[C@H]2O)[C@H](O)[C@@H](O)[C@@H]1O` [TDCM, trehalose dicorynomycolate, reference compound], for which the “Number of surviving mice/number of treated mice, 2 hours later” value in series [2] (2 hours later) and in series [3] was 4/4 each time. Besides, the “Number of surviving mice/number of treated mice, 6 hours later” value in series [2] (6 hours later) and in series [3] was 4/4 throughout. For the same compound, the “Number of surviving mice/number of treated mice, 12 hours later” value in series [2] (12 hours later) and in series [3] was 4/4 in each case. Besides, the “Number of surviving mice/number of treated mice, 24 hours later” value in series [2] (24 hours later) is reported as 4/4; in series [3] it was 2/4. The “Number of surviving mice/number of treated mice, 48 hours later” value in series [2] (48 hours later) is reported as 4/4; in series [3] it was 2/4.

Turning to `CCCCCCCCCCCCCC(CCCCCCCCCCCCC)CC(=O)OCC1O[C@H](O[C@H]2OC(COC(=O)CC(CCCCCCCCCCCCC)CCCCCCCCCCCCC)[C@@H](O)C(O)C2O)C(O)C(O)[C@@H]1O` (stereo partly drawn) [Example 13, 6,6′-bis-O-(3-tridecylhexadecanoyl)-α,α′-trehalose], in series [4], the “IL-6-releasing activity (mouse plasma IL-6 concentration) compared with TDCM” value is listed as “approximately a half of” and the “IFN-γ-releasing activity (mouse plasma IFN-γ concentration) compared with TDCM” value was “approximately a half of”.

On to `CCCCCCCCCCCCCCC(CCCCCCCCCCCCCC)CC(=O)OCC1O[C@H](O[C@H]2OC(COC(=O)CC(CCCCCCCCCCCCCC)CCCCCCCCCCCCCC)[C@@H](O)C(O)C2O)C(O)C(O)[C@@H]1O` (stereo partly drawn) [Example 14, 6,6′-bis-O-(3-tetradecylheptadecanoyl)-α,α′-trehalose], for which, in series [4], the “IL-6-releasing activity (mouse plasma IL-6 concentration) compared with TDCM” value is reported as “approximately equivalent to” and the “IFN-γ-releasing activity (mouse plasma IFN-γ concentration) compared with TDCM” value is recorded as “approximately equivalent to”.

Take `CCCCCCCCCCC(CCCCCCCC)C(=O)OC[C@H]1O[C@H](O)[C@H](O)[C@@H](O)[C@@H]1O` (stereo partly drawn) [control compound B, 6-O-(2-decyldecanoyl)-α-glucose, reference compound]: the “cytotoxicity to THP-1 cells (survival rate, trypan blue staining)” value in series [5] is listed as “cytotoxicity was observed”.
